Data on 25 compounds can be found in US8546377B2 (AbbVie Inc., priority 2009, dated 2013).

SMILES strings stand for the structures. Like-named read-outs stand apart in the source and are kept apart here.

The target of experiment [1] is T1, 5HT2C receptors (Homo sapiens, UniProt P28335).
T1 sequence (P28335 33-458): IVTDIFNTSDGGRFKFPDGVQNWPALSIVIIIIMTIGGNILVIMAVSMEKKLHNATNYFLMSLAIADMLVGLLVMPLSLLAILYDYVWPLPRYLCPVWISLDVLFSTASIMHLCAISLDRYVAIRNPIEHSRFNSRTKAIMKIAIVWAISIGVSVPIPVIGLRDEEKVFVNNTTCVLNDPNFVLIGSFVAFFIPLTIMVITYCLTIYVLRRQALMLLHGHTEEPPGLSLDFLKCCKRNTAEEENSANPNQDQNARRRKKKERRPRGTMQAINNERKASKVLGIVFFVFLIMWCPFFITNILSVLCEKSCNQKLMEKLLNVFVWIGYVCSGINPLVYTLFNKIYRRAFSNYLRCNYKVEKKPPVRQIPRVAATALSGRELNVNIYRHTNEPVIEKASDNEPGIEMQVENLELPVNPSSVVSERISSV
The experiment in a line: Human 5-HT2C functional assay in CHO-K1 cells (calcium flux, FLIPR). Format: cell-based. Set-up: expressed in transfected cells; host or cells: CHO-K1 cells. The gist of the method: (§1)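 EC50 came from a 4-parameter logistic fit, with Emax expressed relative to serotonin, of intracellular Ca2+ rises read on FLIPR at 480/530 nm, 25° C, over 3 min. Compounds ran from 10 μM in six 1:10 steps (0.2% DMSO) on serum-starved CHO-K1 transfectants pre-loaded 60 min with Ca4 dye and probenecid.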
Background: Calcium flux is commonly read through the fluorescence of an indicator in the cells.

For experiment [2], the target named is T2, 5HT2B receptors (Homo sapiens, UniProt P41595).
T2 construct: expressed in transfected cells; host or cells: CHO-K1 cells
The experiment in a line: Human 5-HT2B functional assay in CHO-K1 cells (calcium flux, FLIPR). Format: cell-based. The method, boiled down:
as §1

Where [3] appears, read: CHO-K1 cells over-expressing 5HT2C, calcium flux, read-out: EC50 (μM), 5-HT2c Agonist Activity.
[4] abbreviates: CHO-K1 cells, percentage relative to the effect of serotonin, read-out: Emax (%), 5-HT2c Agonist Activity.
[5] abbreviates: CHO-K1 cells over-expressing 5HT2B, calcium flux, read-out: EC50 (μM), 5-HT2B Agonist Activity.
The mark [6] stands for this setting: CHO-K1, read-out: Emax (%), 5-HT2c Agonist Activity, CHO-K1 cells, percentage relative to the effect of serotonin.
Where [7] appears, read: CHO-K1, read-out: Emax (%), 5-HT2B Agonist Activity.
The mark [8] stands for this setting: CHO-K1 cells, percentage relative to the effect of serotonin, read-out: Emax (%), 5-HT2B Agonist Activity.

T2 sequence (P41595 whole entry): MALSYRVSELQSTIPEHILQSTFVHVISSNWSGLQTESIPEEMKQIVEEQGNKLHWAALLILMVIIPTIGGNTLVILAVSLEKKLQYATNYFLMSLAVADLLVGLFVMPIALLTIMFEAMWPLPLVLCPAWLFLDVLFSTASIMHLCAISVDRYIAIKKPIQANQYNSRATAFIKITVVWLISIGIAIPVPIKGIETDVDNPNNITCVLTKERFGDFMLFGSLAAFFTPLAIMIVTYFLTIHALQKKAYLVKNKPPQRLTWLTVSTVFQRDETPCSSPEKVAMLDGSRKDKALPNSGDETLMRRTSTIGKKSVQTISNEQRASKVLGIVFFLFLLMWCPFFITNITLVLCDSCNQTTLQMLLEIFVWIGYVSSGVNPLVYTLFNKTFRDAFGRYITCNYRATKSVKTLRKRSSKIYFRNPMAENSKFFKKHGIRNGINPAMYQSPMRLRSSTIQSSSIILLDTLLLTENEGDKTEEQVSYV

`O=C1CC2CNCCN2c2cc(-c3cccc(-c4ccccc4)c3)ccc2N1` (stereo not drawn) [Example 59, 10-(biphenyl-3-yl)-1,2,3,4,4a,5-hexahydropyrazino[1,2-a][1,5]benzodiazepin-6(7H)-one]: the EC50 (as a rule, the concentration needed to bring the measured effect to its halfway point) in experiment [1] (setting [3]) was 0.04 µM; in experiment [2] (setting [5]), greater than 10 µM. The Emax (commonly the greatest response seen or fitted, relative to the assay's reference) in experiment [1] (setting [4]) is greater than 120%.
Turning to `C[C@@H](Cc1ccccc1)Oc1ccc2c(c1)N1CCNC[C@H]1CC(=O)N2` [Example 167, (4aR)-10-{[(2S)-1-phenylpropan-2-yl]oxy}-1,2,3,4,4a,5-hexahydropyrazino[1,2-a][1,5]benzodiazepin-6(7H)-one], the EC50 in experiment [1] (setting [3]) is 1 µM; in experiment [2] (setting [5]), greater than 10 µM. In experiment [1] (setting [4]), the Emax is 110%.
As to `Fc1cccc2c1OCC[C@H]1CNCCN21` [Example 139, (4aS)-8-fluoro-2,3,4,4a,5,6-hexahydro-1H-pyrazino[2,1-d][1,5]benzoxazepine], the results for the EC50 in experiment [1] and in experiment [2] were 0.0004 µM and 0.06 µM, respectively. For the same compound, the Emax in experiment [1] (setting [6]) is greater than 120%; in experiment [2] (setting [7]) it was 20%.
On to `Fc1ccc2c(c1F)OCC[C@H]1CNCCN21` [Example 218, (4aS)-8,9-difluoro-2,3,4,4a,5,6-hexahydro-1H-pyrazino[2,1-d][1,5]benzoxazepine], for which the concentration giving a half-maximal response (EC50) is 0.002 µM in experiment [1] and 0.07 µM in experiment [2]. Further, the figures for the Emax in experiment [1] (setting [6]) and in experiment [2] (setting [7]) were 100% and 20%, respectively.
With `O=C1CC2CNCCN2c2ccc(Cl)cc2N1` (stereo not drawn) [Example 51, 9-chloro-1,2,3,4,4a,5-hexahydropyrazino[1,2-a][1,5]benzodiazepin-6(7H)-one], the EC50 in experiment [1] was 0.07 µM; in experiment [2], greater than 10 µM. For the same compound, the Emax in experiment [1] (setting [6]) was 90%.
For the compound `C[C@@H](Oc1ccc2c(c1)N1CCNCC1CC(=O)N2)c1ccccc1` (stereo partly drawn) [Example 153, 10-[(1R)-1-phenylethoxy]-1,2,3,4,4a,5-hexahydropyrazino[1,2-a][1,5]benzodiazepin-6(7H)-one], the concentration for a half-maximal effect (EC50) in experiment [1] (setting [3]) came to 0.01 µM; in experiment [2] (setting [5]), 0.1 µM. Moreover, the Emax in experiment [1] (setting [4]) turned out to be 110%; in experiment [2] (setting [8]), 20%.
As for `Fc1cccc(-c2ccc3c(c2)N2CCNC[C@@H]2CCO3)c1` [Example 204, (4aS)-10-(3-fluorophenyl)-2,3,4,4a,5,6-hexahydro-1H-pyrazino[2,1-d][1,5]benzoxazepine], the EC50 in experiment [1] (setting [3]) was 0.05 µM; in experiment [2] (setting [5]), greater than 10 µM. The maximal response (Emax) in experiment [1] (setting [4]) is greater than 120%.
Take `CCOC(=O)c1ccc2c(c1)N1CCNCC1CC(=O)N2` (stereo not drawn) [Example 50, ethyl 6-oxo-1,2,3,4,4a,5,6,7-octahydropyrazino[1,2-a][1,5]-benzodiazepine-10-carboxylate]: the EC50 in experiment [1] (setting [3]) is 0.2 µM; in experiment [2] (setting [5]), greater than 10 µM. In addition, the maximum response (Emax) in experiment [1] (setting [4]) was 80%.
As to `CCN1CCC2CN(C)CCN2c2ccc(Cl)cc21` (stereo not drawn) [Example 82, 9-chloro-7-ethyl-3-methyl-1,2,3,4,4a,5,6,7-octahydropyrazino[1,2-a][1,5]benzodiazepine], the EC50 is 0.6 µM in experiment [1] (setting [3]) and greater than 10 µM in experiment [2] (setting [5]). The Emax in experiment [1] (setting [4]) came out at 90%.
Take `O=C1CC2CNCCN2c2cc(-c3cnn(Cc4ccccc4)c3)ccc2N1` (stereo not drawn) [Example 56, 10-(1-benzyl-1H-pyrazol-4-yl)-1,2,3,4,4a,5-hexahydropyrazino[1,2-a][1,5]benzodiazepin-6(7H)-one]: the figures for the EC50 in experiment [1] (setting [3]) and in experiment [2] (setting [5]) were 1 µM and greater than 10 µM, respectively. Further, the maximal effect (Emax) in experiment [1] (setting [4]) was 110%.
As to `CC(C)Oc1cccc(-c2ccc3c(c2)N2CCNC[C@@H]2CC(=O)N3)c1` [Example 117, (4aS)-10-(3-isopropoxyphenyl)-1,2,3,4,4a,5-hexahydropyrazino[1,2-a][1,5]benzodiazepin-6(7H)-one], the EC50 in experiment [1] (setting [3]) is 0.001 µM; in experiment [2] (setting [5]), greater than 10 µM. Also, the Emax in experiment [1] (setting [4]) is greater than 120%.
The corresponding values for `C[C@@H](Cc1ccccc1)Oc1ccc2c(c1)N1CCNCC1CC(=O)N2` (stereo partly drawn) [Example 160, 10-{[(2S)-1-phenylpropan-2-yl]oxy}-1,2,3,4,4a,5-hexahydropyrazino[1,2-a][1,5]benzodiazepin-6(7H)-one] are 0.0797 µM, greater than 10 µM and greater than 120%.
Take `CCC(Oc1ccc2c(c1)N1CCNC[C@@H]1CC(=O)N2)c1ccccc1` (stereo partly drawn) [Example 177, (4aS)-10-(1-phenylpropoxy)-1,2,3,4,4a,5-hexahydropyrazino[1,2-a][1,5]benzodiazepin-6(7H)-one]: the results for the EC50 in experiment [1] (setting [3]) and in experiment [2] (setting [5]) were 0.06 µM and greater than 10 µM, respectively. For the same compound, the maximal response (Emax) in experiment [1] (setting [4]) turned out to be 110%.
With `Fc1ccc2c(c1)OCC[C@H]1CNCCN21` [Example 136, (4aS)-9-fluoro-2,3,4,4a,5,6-hexahydro-1H-pyrazino[2,1-d][1,5]benzoxazepine], the figures for the EC50 in experiment [1] and in experiment [2] were 0.002 µM and 0.1 µM, respectively. Besides, the Emax in experiment [1] (setting [6]) was greater than 120%; in experiment [2] (setting [7]), 20%.
As to `CS(=O)(=O)c1cccc(-c2ccc3c(c2)N2CCNC[C@@H]2CCO3)c1` [Example 196, (4aS)-10-[3-(methylsulfonyl)phenyl]-2,3,4,4a,5,6-hexahydro-1H-pyrazino[2,1-d][1,5]benzoxazepine], the results for the EC50 in experiment [1] (setting [3]) and in experiment [2] (setting [5]) were 0.009 µM and greater than 10 µM, respectively. For the same compound, the Emax in experiment [1] (setting [4]) was greater than 120%.
As to `C[C@H](Cc1ccccc1)Oc1ccc2c(c1)N1CCNC[C@H]1CC(=O)N2` [Example 166, (4aR)-10-{[(2R)-1-phenylpropan-2-yl]oxy}-1,2,3,4,4a,5-hexahydropyrazino[1,2-a][1,5]benzodiazepin-6(7H)-one], the figures for the EC50 in experiment [1] (setting [3]) and in experiment [2] (setting [5]) were 0.04 µM and greater than 10 µM, respectively. Besides, the Emax in experiment [1] (setting [4]) was greater than 120%.
The matching figures for `O=C1CC2CNCCN2c2cc(-c3ccccc3F)ccc2N1` (stereo not drawn) [Example 70, 10-(2-fluorophenyl)-1,2,3,4,4a,5-hexahydropyrazino[1,2-a][1,5]benzodiazepin-6(7H)-one]: 0.06 µM, greater than 10 µM and greater than 120%.
Turning to `O=C1CC2CNCCN2c2cccc(Cl)c2N1` (stereo not drawn) [Example 110, 8-chloro-1,2,3,4,4a,5-hexahydropyrazino[1,2-a][1,5]benzodiazepin-6(7H)-one], the EC50 in experiment [1] was 0.005 µM; in experiment [2] it was greater than 10 µM. Besides, the Emax in experiment [1] (setting [6]) was greater than 120%.
Consider `Cc1cccc(-c2ccc3c(c2)N2CCNCC2CC(=O)N3)c1` (stereo not drawn) [Example 89, 10-(3-methylphenyl)-1,2,3,4,4a,5-hexahydropyrazino[1,2-a][1,5]benzodiazepin-6(7H)-one], for which the EC50 in experiment [1] (setting [3]) is 0.07 µM; in experiment [2] (setting [5]), greater than 10 µM. Moreover, the Emax in experiment [1] (setting [4]) is greater than 120%.
On to `Fc1ccc2c(c1)N1CCNC[C@H]1CCO2` [Example 258, (4aR)-10-fluoro-2,3,4,4a,5,6-hexahydro-1H-pyrazino[2,1-d][1,5]benzoxazepine], for which the EC50 turned out to be 0.01 µM in experiment [1] and 0.007 µM in experiment [2]. For the same compound, the Emax in experiment [1] (setting [6]) and in experiment [2] (setting [7]) was 80% each time.
Consider `FCCN1CCN2c3ccccc3OCC[C@H]2C1` [Example 240, (4aS)-3-(2-fluoroethyl)-2,3,4,4a,5,6-hexahydro-1H-pyrazino[2,1-d][1,5]benzoxazepine], for which the Emax amounted to 90% in experiment [1] (CHO-K1, read-out: Emax (%), 5-HT2c Agonist Activity) and 10% in experiment [2] (setting [7]). The EC50 came to 0.04 µM in experiment [1] (setting [3]) and 1 µM in experiment [2] (setting [5]).
As for `CC(O)c1cccc(-c2ccc3c(c2)N2CCNC[C@@H]2CCO3)c1` (stereo partly drawn) [Example 222, 1-{3-[(4aS)-2,3,4,4a,5,6-hexahydro-1H-pyrazino[2,1-d][1,5]benzoxazepin-10-yl]phenyl}ethanol], the EC50 is 0.0008 µM in experiment [1] (setting [3]) and 0.4 µM in experiment [2] (setting [5]). Also, the Emax in experiment [1] (setting [4]) came out at 100%; in experiment [2] (setting [8]) it was 50%.
Turning to `O=C1C[C@H]2CNCCN2c2cc(-c3ccccc3F)ccc2N1` [Example 116, (4aS)-10-(2-fluorophenyl)-1,2,3,4,4a,5-hexahydropyrazino[1,2-a][1,5]benzodiazepin-6(7H)-one], the concentration for a half-maximal effect (EC50) stood at 0.008 µM in experiment [1] (setting [3]) and 0.05 µM in experiment [2] (setting [5]). For the same compound, the results for the Emax in experiment [1] (setting [4]) and in experiment [2] (setting [8]) were greater than 120% and 30%, respectively.
As for `O=C1CC2CNCCN2c2cc(COc3ccccc3F)ccc2N1` (stereo not drawn) [Example 113, 10-[(2-fluorophenoxy)methyl]-1,2,3,4,4a,5-hexahydropyrazino[1,2-a][1,5]-benzodiazepin-6(7H)-one], the figures for the EC50 in experiment [1] (setting [3]) and in experiment [2] (setting [5]) were 0.05 µM and 0.2 µM, respectively. In addition, the Emax was greater than 120% in experiment [1] (setting [4]) and 50% in experiment [2] (setting [8]).
Take `CC(O)c1cccc(-c2ccc3c(c2)OCC[C@H]2CNCCN32)c1` (stereo partly drawn) [Example 229, 1-{3-[(4aS)-2,3,4,4a,5,6-hexahydro-1H-pyrazino[2,1-d][1,5]benzoxazepin-9-yl]phenyl}ethanol]: the EC50 in experiment [1] (setting [3]) is 0.02 µM; in experiment [2] (setting [5]) it was greater than 10 µM. For the same compound, in experiment [1] (setting [4]), the Emax was 100%.
